This note sets out measurements from ChEMBL document CHEMBL1145498, “A systematic interaction map of validated kinase inhibitors with Ser/Thr kinases” (Proc Natl Acad Sci U S A, 2007).

The target in experiment [1] is Serine/threonine-protein kinase PAK 6 (Homo sapiens) (UniProt Q9NQU5).
Experiment [2] concerns the target Cyclin-dependent kinase-like 1 (Homo sapiens) (UniProt Q00532).
Experiment [3] deals with Mitogen-activated protein kinase 6 (Homo sapiens) (UniProt Q16659).
The target in experiment [4] is Serine/threonine-protein kinase 16 (Homo sapiens) (UniProt O75716).
The target of experiment [5] is T1, Mitogen-activated protein kinase kinase kinase 5 (Homo sapiens) (UniProt Q99683).
T1 sequence (whole entry): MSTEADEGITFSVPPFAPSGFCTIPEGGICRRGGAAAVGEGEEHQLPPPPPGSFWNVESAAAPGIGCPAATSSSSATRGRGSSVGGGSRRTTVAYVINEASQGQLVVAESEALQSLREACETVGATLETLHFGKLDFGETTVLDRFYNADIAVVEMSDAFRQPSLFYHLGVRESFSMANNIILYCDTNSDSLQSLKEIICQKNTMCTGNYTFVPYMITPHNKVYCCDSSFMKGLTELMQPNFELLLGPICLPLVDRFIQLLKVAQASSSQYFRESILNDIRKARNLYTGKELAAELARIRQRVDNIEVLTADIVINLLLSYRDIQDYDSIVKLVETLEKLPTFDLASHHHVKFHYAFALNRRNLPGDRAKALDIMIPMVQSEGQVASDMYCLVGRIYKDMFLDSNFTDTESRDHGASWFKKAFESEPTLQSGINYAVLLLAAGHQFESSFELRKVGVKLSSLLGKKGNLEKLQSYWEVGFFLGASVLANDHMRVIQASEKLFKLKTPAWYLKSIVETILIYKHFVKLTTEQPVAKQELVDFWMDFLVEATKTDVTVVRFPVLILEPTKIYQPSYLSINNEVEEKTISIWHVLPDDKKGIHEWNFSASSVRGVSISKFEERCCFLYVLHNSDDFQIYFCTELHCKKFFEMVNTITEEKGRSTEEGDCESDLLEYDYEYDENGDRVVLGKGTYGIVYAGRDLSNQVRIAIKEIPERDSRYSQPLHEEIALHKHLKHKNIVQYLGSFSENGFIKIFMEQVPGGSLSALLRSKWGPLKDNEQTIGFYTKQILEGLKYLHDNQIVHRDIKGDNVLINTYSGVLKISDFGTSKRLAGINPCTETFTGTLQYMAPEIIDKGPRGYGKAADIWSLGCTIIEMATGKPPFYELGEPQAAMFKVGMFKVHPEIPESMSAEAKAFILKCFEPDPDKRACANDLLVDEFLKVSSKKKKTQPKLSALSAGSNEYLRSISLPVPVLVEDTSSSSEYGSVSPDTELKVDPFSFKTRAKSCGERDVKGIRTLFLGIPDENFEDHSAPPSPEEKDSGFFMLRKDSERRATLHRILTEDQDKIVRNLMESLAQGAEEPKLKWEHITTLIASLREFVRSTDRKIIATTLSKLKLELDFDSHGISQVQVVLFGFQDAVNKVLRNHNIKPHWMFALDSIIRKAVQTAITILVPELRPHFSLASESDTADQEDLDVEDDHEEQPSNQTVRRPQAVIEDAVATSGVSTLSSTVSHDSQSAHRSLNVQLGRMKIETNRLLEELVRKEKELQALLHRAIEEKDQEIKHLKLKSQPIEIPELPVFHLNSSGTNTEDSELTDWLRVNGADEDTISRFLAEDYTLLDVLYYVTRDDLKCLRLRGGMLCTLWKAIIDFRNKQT

In experiment [6] the target is Calcium/calmodulin-dependent protein kinase type II subunit alpha (Homo sapiens) (UniProt Q9UQM7).
The target in experiment [7] is Dual specificity protein kinase CLK2 (Homo sapiens) (UniProt P49760).
For experiment [8], the target named is Calcium/calmodulin-dependent protein kinase type II subunit beta (Homo sapiens) (UniProt Q13554).
Experiment [9] has as its target TRAF2 and NCK-interacting protein kinase (Homo sapiens) (UniProt Q9UKE5).
Experiment [10] concerns the target Casein kinase I isoform gamma-2 (Homo sapiens) (UniProt P78368).
Experiment [11] concerns the target Ribosomal protein S6 kinase alpha-3 (Homo sapiens) (UniProt P51812).
Experiment [12] has as its target Serine/threonine-protein kinase pim-1 (Homo sapiens) (UniProt P11309).
Experiment [13] concerns the target Casein kinase I isoform gamma-1 (Homo sapiens) (UniProt Q9HCP0).
In experiment [14] the target is Serine/threonine-protein kinase 26 (Homo sapiens) (UniProt Q9P289).
In experiment [15] the target is Cyclin-dependent kinase 6 (Homo sapiens) (UniProt Q00534).
In experiment [16] the target is Serine/threonine-protein kinase OSR1 (Homo sapiens) (UniProt O95747).
Experiment [17] concerns the target T2, Serine/threonine-protein kinase 17A (Homo sapiens) (UniProt Q9UEE5).
T2 sequence (whole entry): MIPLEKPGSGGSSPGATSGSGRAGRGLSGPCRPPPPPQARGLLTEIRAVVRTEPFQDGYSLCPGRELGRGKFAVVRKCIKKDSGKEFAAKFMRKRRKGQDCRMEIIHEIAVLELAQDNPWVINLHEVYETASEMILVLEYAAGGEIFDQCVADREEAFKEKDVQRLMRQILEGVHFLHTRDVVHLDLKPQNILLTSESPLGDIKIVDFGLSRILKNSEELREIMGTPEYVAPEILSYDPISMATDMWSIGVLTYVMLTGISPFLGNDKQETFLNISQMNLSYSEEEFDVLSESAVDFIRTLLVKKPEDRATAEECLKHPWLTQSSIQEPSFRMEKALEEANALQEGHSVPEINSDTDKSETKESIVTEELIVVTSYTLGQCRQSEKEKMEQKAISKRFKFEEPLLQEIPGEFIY

Experiment [18] concerns the target Glycogen synthase kinase-3 beta (Homo sapiens, UniProt P49841).
For experiment [19], the target named is Serine/threonine-protein kinase pim-2 (Homo sapiens, UniProt Q9P1W9).
For experiment [20], the target named is Serine/threonine-protein kinase VRK2 (Homo sapiens) (UniProt Q86Y07).
The target in experiment [21] is Cyclin-dependent kinase 2 (Homo sapiens, UniProt P24941).

Structures are written as SMILES.

Chain of TRAF2 and NCK-interacting protein kinase (Homo sapiens) (Q9UKE5 whole entry, looked up, canonical isoform): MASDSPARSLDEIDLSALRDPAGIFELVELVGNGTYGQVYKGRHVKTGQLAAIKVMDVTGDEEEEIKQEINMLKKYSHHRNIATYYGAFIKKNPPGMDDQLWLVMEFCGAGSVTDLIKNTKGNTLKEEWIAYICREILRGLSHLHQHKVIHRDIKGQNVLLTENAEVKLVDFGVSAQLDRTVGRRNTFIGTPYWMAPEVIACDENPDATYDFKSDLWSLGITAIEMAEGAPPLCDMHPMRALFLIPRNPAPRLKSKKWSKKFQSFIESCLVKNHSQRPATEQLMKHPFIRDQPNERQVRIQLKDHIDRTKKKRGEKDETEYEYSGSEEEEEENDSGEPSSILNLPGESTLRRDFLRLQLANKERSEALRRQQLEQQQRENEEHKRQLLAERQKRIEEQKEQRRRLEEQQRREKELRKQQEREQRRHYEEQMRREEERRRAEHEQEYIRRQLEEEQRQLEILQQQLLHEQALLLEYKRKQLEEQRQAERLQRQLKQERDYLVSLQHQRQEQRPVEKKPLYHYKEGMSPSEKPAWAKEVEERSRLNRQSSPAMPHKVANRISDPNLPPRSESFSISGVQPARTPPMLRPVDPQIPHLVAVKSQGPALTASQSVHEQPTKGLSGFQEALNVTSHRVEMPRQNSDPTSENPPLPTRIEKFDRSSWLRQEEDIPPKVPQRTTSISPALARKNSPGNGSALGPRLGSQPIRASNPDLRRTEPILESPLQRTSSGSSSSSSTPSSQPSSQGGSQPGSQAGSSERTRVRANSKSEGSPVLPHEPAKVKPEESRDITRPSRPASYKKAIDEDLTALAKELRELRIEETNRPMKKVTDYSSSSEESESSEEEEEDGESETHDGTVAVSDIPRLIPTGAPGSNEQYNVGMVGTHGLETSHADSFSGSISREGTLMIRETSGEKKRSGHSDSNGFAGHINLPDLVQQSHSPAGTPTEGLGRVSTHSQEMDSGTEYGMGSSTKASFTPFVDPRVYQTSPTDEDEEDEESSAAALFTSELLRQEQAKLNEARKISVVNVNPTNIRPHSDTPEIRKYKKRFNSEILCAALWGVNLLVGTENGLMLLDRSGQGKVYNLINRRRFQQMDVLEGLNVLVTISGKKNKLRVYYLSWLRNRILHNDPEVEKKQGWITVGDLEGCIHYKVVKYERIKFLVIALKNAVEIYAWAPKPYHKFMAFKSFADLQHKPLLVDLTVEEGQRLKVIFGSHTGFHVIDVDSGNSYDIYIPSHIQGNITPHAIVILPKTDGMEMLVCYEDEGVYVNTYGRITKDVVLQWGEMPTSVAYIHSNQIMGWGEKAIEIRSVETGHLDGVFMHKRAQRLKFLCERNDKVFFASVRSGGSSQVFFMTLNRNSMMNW
Chain of Serine/threonine-protein kinase PAK 6 (Homo sapiens) (Q9NQU5 whole entry, looked up): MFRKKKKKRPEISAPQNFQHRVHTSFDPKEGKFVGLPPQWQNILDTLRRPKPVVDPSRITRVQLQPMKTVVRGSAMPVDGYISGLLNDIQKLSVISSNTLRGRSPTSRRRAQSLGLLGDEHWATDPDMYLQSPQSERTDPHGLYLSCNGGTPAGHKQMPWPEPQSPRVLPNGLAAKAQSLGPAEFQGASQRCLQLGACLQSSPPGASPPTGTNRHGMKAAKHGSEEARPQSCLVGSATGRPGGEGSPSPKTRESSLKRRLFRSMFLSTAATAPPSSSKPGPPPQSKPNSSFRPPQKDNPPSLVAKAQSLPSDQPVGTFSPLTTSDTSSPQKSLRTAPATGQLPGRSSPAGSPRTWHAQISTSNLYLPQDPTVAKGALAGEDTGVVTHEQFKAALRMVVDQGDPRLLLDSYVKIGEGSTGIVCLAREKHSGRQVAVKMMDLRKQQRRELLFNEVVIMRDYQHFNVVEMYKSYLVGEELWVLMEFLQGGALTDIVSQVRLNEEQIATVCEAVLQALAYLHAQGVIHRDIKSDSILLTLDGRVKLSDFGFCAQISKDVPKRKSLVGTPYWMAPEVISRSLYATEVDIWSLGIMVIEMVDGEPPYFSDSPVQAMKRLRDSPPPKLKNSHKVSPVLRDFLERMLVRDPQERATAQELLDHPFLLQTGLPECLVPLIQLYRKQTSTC
Chain of Serine/threonine-protein kinase pim-1 (Homo sapiens) (P11309 whole entry, looked up, canonical isoform): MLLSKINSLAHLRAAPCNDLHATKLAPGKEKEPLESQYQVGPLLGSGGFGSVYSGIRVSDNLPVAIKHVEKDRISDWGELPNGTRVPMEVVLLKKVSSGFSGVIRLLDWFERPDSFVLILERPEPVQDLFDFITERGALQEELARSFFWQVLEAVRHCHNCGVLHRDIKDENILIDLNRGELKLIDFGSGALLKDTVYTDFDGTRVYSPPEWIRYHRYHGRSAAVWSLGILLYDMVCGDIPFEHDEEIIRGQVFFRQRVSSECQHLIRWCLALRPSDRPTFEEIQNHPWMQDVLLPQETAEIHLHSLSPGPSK
Chain of Calcium/calmodulin-dependent protein kinase type II subunit beta (Homo sapiens) (Q13554 whole entry): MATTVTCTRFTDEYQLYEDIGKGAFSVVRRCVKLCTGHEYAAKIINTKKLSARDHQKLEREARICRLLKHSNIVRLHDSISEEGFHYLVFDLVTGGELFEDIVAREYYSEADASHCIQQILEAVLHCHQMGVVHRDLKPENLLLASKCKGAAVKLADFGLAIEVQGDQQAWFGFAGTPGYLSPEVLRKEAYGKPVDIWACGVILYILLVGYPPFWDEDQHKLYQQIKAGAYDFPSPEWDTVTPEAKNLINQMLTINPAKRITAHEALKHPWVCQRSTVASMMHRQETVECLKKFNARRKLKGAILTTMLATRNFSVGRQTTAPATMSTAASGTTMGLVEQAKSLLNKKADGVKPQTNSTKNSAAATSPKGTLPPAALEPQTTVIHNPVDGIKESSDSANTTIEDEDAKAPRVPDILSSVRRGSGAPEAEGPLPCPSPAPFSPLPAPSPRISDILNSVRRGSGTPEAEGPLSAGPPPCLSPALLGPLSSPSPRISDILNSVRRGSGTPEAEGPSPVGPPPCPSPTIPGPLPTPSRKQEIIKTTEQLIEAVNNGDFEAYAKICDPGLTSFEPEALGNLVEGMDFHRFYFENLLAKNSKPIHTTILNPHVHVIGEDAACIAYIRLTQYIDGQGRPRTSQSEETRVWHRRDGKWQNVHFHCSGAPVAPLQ
Chain of Ribosomal protein S6 kinase alpha-3 (Homo sapiens) (P51812 whole entry): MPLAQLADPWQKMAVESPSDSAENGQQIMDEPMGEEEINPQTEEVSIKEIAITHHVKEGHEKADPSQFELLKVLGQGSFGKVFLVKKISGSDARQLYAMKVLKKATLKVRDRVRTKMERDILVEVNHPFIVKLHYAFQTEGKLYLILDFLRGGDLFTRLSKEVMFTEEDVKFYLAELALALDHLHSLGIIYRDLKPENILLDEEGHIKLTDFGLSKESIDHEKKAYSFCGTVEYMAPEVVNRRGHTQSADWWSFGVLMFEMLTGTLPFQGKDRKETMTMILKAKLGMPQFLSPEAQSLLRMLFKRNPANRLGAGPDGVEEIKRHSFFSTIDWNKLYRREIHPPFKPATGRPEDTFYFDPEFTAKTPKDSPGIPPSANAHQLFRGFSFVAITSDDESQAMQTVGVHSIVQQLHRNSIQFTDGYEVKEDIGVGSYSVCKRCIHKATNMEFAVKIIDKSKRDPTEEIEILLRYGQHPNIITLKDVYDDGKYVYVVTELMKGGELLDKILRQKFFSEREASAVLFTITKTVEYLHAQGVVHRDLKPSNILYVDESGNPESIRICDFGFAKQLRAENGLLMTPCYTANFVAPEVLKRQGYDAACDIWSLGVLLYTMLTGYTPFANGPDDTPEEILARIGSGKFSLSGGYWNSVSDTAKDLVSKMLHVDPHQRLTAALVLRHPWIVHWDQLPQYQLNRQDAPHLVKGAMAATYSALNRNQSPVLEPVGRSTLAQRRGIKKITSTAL
Chain of Cyclin-dependent kinase-like 1 (Homo sapiens) (Q00532 whole entry): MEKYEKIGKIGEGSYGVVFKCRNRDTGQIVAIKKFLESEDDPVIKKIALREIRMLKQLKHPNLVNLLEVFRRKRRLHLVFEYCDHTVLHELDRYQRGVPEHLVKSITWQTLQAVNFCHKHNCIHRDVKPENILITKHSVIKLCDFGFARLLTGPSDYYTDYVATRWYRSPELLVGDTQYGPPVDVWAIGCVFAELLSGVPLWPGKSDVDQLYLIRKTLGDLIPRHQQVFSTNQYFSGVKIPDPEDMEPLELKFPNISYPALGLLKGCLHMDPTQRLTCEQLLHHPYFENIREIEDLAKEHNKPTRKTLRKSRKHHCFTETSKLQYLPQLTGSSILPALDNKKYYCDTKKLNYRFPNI
Chain of Glycogen synthase kinase-3 beta (P49841 whole entry, looked up): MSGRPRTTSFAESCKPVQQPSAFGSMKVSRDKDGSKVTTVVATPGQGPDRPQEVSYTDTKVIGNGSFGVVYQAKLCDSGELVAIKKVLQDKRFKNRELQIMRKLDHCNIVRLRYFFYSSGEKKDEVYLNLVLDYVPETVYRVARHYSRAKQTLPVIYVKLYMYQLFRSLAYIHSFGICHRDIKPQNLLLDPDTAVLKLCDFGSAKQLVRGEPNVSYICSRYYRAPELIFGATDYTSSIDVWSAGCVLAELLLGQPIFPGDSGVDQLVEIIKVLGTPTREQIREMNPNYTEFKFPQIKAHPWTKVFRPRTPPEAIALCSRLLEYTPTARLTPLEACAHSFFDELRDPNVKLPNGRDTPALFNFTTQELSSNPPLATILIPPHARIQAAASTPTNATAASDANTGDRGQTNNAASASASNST
Chain of Calcium/calmodulin-dependent protein kinase type II subunit alpha (Homo sapiens) (Q9UQM7 whole entry): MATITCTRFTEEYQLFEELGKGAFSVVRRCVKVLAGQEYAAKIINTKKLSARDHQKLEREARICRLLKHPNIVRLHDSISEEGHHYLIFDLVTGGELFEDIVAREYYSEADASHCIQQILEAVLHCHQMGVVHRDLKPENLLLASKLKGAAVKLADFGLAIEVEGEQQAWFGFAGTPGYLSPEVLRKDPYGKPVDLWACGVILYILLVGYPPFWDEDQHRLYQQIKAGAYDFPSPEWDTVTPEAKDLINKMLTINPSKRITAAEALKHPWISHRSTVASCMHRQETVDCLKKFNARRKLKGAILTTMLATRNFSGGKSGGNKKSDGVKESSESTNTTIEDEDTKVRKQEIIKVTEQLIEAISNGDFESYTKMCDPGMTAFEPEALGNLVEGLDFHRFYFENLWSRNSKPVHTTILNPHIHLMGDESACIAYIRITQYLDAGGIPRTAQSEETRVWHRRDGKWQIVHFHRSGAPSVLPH

As for `O=C1Nc2ccccc2/C1=C/c1cnc[nH]1`, the ΔTm was determined as 1.9 °C in experiment [1]; 3.7 °C in [2]; 0.5 °C in experiment [3]; 7.5 °C in [4]; 5 °C in experiment [5]; 0.7 °C in [6]. Besides, the ΔTm came out at 2.5 °C in experiment [7]; 0.8 °C in experiment [8]; 6.1 °C in experiment [9]; 1.6 °C in experiment [10]; 1 °C in experiment [11]; 3 °C in [12]. Further, the ΔTm in experiment [13] was 1.2 °C; in experiment [14] it was 4.3 °C; in [15], 4.4 °C; in [16], 2.4 °C; in experiment [17], 9 °C; in experiment [18], 7.1 °C. For the same molecule, the ΔTm was found to be 1.9 °C in experiment [19], 2.1 °C in [20] and 6.6 °C in experiment [21].
Regarding `Cl.Cn1cc(C2=C(c3ccc4cc5n(c4c3)CCC(CN)C5)C(=O)NC2=O)c2ccccc21` (centres undefined), the ΔTm amounted to 0.7 °C in experiment [1]; 0.2 °C in experiment [2]; 0.7 °C in experiment [3]; 1.2 °C in experiment [4]; 0 °C in experiment [5]; 1.4 °C in experiment [6]. The ΔTm was 1 °C in experiment [7]; 1.2 °C in [8]; 0.3 °C in experiment [9]; 0.4 °C in experiment [10]; 0.1 °C in [11]; 6.3 °C in [12]. The ΔTm in experiment [13] is 0.5 °C; in [14], 1.2 °C; in [15], 1 °C; in experiment [16], -0.1 °C; in experiment [17], 3.5 °C; in [18], 6.7 °C. Further, the ΔTm in experiment [19] was 3.1 °C; in [20], 0.4 °C; in experiment [21], 2.4 °C.
For `COc1ccc(S(=O)(=O)N(CCO)c2ccccc2CN(C)C/C=C/c2ccc(Cl)cc2)cc1`, the ΔTm in experiment [1] was -0.8 °C; in experiment [2], -1.2 °C; in experiment [3] it was -0.5 °C; in experiment [4] it was 0.5 °C; in [5], -0.1 °C; in experiment [6], -0.7 °C. Moreover, the ΔTm was -0.3 °C in [7]; -1.6 °C in experiment [8]; 1.3 °C in experiment [9]; 0.3 °C in experiment [10]; 0.7 °C in experiment [11]; 1.3 °C in experiment [12]. Further, the ΔTm is 0.1 °C in [13]; 0.1 °C in experiment [14]; -0.3 °C in experiment [15]; -0.7 °C in [16]; 0.1 °C in [17]; 0 °C in [18]. Besides, the results for the ΔTm in [19], in experiment [20] and in experiment [21] were 0.6 °C, -0.3 °C and 0 °C, respectively.
Regarding `O=S(=O)(c1cccc2c(Cl)cccc12)N1CCCNCC1`, the ΔTm in experiment [1] was -0.1 °C; in [2] it was 0.3 °C; in experiment [3], 0 °C; in experiment [4] it was 1.1 °C; in experiment [5] it was 0.6 °C; in [6], 0.5 °C. The ΔTm in experiment [7] is 0.6 °C; in experiment [8], 0.3 °C; in [9], 0.1 °C; in experiment [10], 0.3 °C; in [11], -0.2 °C; in [12], 2.7 °C. Besides, the ΔTm in experiment [13] is 0.2 °C; in [14] it was 0 °C; in experiment [15], 0.9 °C; in experiment [16] it was -0.5 °C; in [17] it was 0.7 °C; in experiment [18], 0.2 °C. Besides, the ΔTm in [19] worked out at 1.7 °C; in experiment [20], 0 °C; in experiment [21], 0.8 °C.

As a reminder, the ΔTm is the shift of the melting midpoint relative to a reference.
